Patent US7314719B2, “Method for increasing productivity of secondary metabolite by conferring drug-resistant mutations” (priority 2001, dated 2008)
Read-outs that look alike come from different tables or passages of the source.

Experiments:
[1] = system: S. coelicolor 1147 (wild type) and mutants S-1, SG-1, SG-2; experiment: MIC of antibiotics on GYM agar (screening of drug-resistant mutants); assay type: cell-based, Streptomyces coelicolor; conditions: for Concentration at which growth was inhibited completely: GYM agar; for MIC: 2 days of incubation on GYM agar
Method: The spontaneous streptomycin, gentamicin or rifampicin-resistant mutants of S. coelicolor were obtained as the colonies that grew within 7 days at 30° C. after spores (or cells) were spread on GYM agar (composition is the same as the above GYM agar) containing 5 μg streptomycin per ml or 1.0 μg of gentamicin per ml or 200 μg of rifampicin per ml, respectively (Growth of parental strain was inhibited completely with 1 μg of streptomycin per ml, 0.1 μg of gentamicin per ml or 10 μg of rifampicin per ml). The single colonies grew on screening plates were picked out and inoculated to R4 agar containing 1% of glucose, 0.1% of yeast extract, 0.001% of Casamino Acids, 0.3% of proline, 1% of MgCl2·6H2O, 0.4% of CaCl2·2H2O, 0.002% of K2SO4, 0.56% of TES [N-Tris (hydroxymethyl)methyl-2-aminoethanesulfonic acid], 0.2% of trace elements solution (as described for R2YE medium) and 2% of agar (before adding agar, adjusted to pH 7.2). The R4 plates were incubated at 30° C. for 6 days and the amount of blue pigment actinorhodin produced was compared among wild type strain and mutants, and selected the over-producers among the mutants. Then, the mutants with over-producing actinorhodin were inoculated into R4 liquid medium (composition is the same as the R4 agar, but no agar) in 25 ml of test tubes containing 5 ml medium on an orbital shaker at 30° C., 350 rpm. After incubation for 6 days, 1 ml culture samples were taken and adjusted pH to 8.0. After centrifugation at 1100 g for 5 min., actinorhodin production in supernatants was assayed by measurement of the optical density of supernatants at 633 nm. The highest productivity detected reached 1.6-fold for gentamicin-resistant mutants, 1.8-fold for streptomycin-resistant mutants and 3.0-fold for rifampicin-resistant mutants. The frequencies for such high producers were 5%, 6% and 10%, respectively (see Table 1 and FIG. 7).
The spontaneous geneticin, gentamicin or rifampicin-resistant mutants of S-1 were obtained as colonies that grew on GYM agar containing 2.5 μg of geneticin per ml or 2.5 μg of gentamicin per ml or 200 μg of rifampicin per ml. (Growth of S-1 strain was inhibited completely with 0.5 μg of geneticin per ml, 0.5 μg of gentamicin per ml or 10 μg of rifampicin per ml.). Actinorhodin productivity of mutants was examined using R4 agar plates and R4 liquid medium.
The spontaneous rifampicin-resistant mutants of SG-1 and SG-2 strains were obtained as colonies that grew on GYM agar containing 200 μg of rifampicin per ml.

[2] = system: S. coelicolor 1147 and drug-resistant mutants; experiment: Resistance level to antibiotics on GYM agar (Table 2); assay type: cell-based, Streptomyces coelicolor; conditions: 4 days on GYM agar
[3] = system: Bacillus cereus No. 2045 and mutants; experiment: Resistance level to gentamicin and rifampicin (Table 4); assay type: cell-based
Method: A gentamicin-resistant mutant and a rifampicin-and gentamicin-resistant mutant of Bacillus cereus No. 2045 were produced according to a similar manner to that of Examples 1, 2 or 3. Those mutants were precultured in bouillon medium for 10 h. Cells (0.1 ml) were inoculated into 5 ml of production medium consisting of (per liter) 20 g of polypeptone, 20 g of corn steep liquor, and 5 g of NaCl (adjusted to pH 7.5 with NaOH) for 2 days at 30° C.

[4] = system: Streptomyces lividans 66 and mutants; experiment: Resistance level to rifampicin and streptomycin (Table 5); assay type: cell-based
Text: A rifampicin-resistant mutant and a streptomycin-and rifampicin-resistant mutant of Streptomyces lividans 66 were produced according to a similar manner to that of Examples 1, 2 or 3, and the actinorhodin production was estimated.

[5] = cited from earlier work
[6] = Streptomyces coelicolor, 48 h, strain S. coelicolor 1147 (wild type), read-out: MIC
[7] = parental strain (S. coelicolor wild type)
[8] = strain B. cereus No. 2045, wild-type
[9] = strain S. lividans 66, wild-type

Molecule: CN[C@@H]1[C@@H](O)[C@@H](O[C@@H]2[C@@H](O)[C@H](O[C@H]3O[C@H]([C@@H](C)O)[C@@H](O)[C@H](O)[C@H]3N)[C@@H](N)C[C@H]2N)OC[C@]1(C)O [Geneticin, geneticin]
- Concentration at which growth was inhibited completely ([1]; S-1 strain): 0.5 μg per ml
- MIC ([1]; Streptomyces coelicolor, 48 h, strain S-1 (str), read-out: MIC): 0.2 µg/mL
- Resistance level ([2]; strain 1147 (wild type)): 0.2 µg/mL
- Resistance level ([2]; strain SGe-1): 0.5 µg/mL
- Resistance level ([2]; strain SGe-2): 1 µg/mL
- Resistance level ([2]; strain SGe-3): 1 µg/mL

Molecule: CO[C@H]1/C=C/O[C@@]2(C)Oc3c(C)c(O)c4c(O)c(c(/C=N/N5CCN(C)CC5)c(O)c4c3C2=O)NC(=O)/C(C)=C\C=C\[C@H](C)[C@H](O)[C@@H](C)[C@@H](O)[C@@H](C)[C@H](OC(C)=O)[C@@H]1C [Rifampicin, rifampicin]
- Concentration at which growth was inhibited completely ([1]; S-1 strain): 10 μg per ml
- Concentration at which growth was inhibited completely ([1]; SG-1 strain): 10 μg per ml
- Concentration at which growth was inhibited completely ([1]; SG-2 strain): 10 μg per ml
- MIC [1, 6]: 10 µg/mL
- Concentration at which growth was inhibited completely [1, 7]: 10 μg per ml
- MIC ([1]; strain S-1 (str)): Rifampicin(10) μg/ml
- MIC ([1]; strain SG-1 (str-gen)): Rifampicin(10) μg/ml
- MIC ([1]; strain SG-2 (str-gen)): Rifampicin(10) μg/ml
- Resistance level [3, 8]: 1.0 µg/mL
- Resistance level ([3]; strain BG-1 (gen)): 1.0 µg/mL
- Resistance level ([3]; strain BG-2 (gen)): 0.8 µg/mL
- Resistance level ([3]; strain BG-3 (gen)): 1.0 µg/mL
- Resistance level ([3]; strain BGR-1 (gen-rif)): 100 µg/mL
- Resistance level ([3]; strain BGR-2 (gen-rif)): 120 µg/mL
- Resistance level ([3]; strain BGR-3 (gen-rif)): 150 µg/mL
- Resistance level ([2]; S. coelicolor strain SR-1): 50 µg/mL
- Resistance level ([2]; S. coelicolor strain SR-2): 150 µg/mL
- Resistance level ([2]; S. coelicolor strain SR-3): 400 µg/mL
- Resistance level ([2]; strain 1147 (wild type)): 10 µg/mL
- Resistance level ([2]; strain R-1): 400 µg/mL
- Resistance level ([2]; strain R-2): 400 µg/mL
- Resistance level ([2]; strain R-3): 400 µg/mL
- Resistance level ([2]; strain SGR-1): 400 µg/mL
- Resistance level ([2]; strain SGR-2): 400 µg/mL
- Resistance level ([2]; strain SGR-3): 300 µg/mL
- Resistance level ([2]; strain SGR-4): 400 µg/mL
- Resistance level ([2]; strain SGR-5): 400 µg/mL
- Resistance level ([2]; strain SGR-6): 300 µg/mL
- Resistance level ([2]; strain SR-4): 400 µg/mL
- Resistance level ([2]; strain SR-5): 400 µg/mL
- Resistance level ([2]; strain SR-6): 400 µg/mL
- Resistance level ([2]; strain SR-7): 400 µg/mL
- Resistance level ([4]; S. lividans strain SR-1 (rif)): 200 µg/mL
- Resistance level ([4]; S. lividans strain SR-2 (rif)): 400 µg/mL
- Resistance level ([4]; S. lividans strain SR-3 (rif)): 400 µg/mL
- Resistance level [4, 9]: 10 µg/mL
- Resistance level ([4]; strain SRS-1 (rif-str)): 400 µg/mL
- Resistance level ([4]; strain SRS-2 (rif-str)): 350 µg/mL
- Resistance level ([4]; strain SRS-3 (rif-str)): 400 µg/mL

Molecule: [H]/N=C(/N)N[C@H]1[C@H](O)[C@@H](O)[C@H](O[C@@H]2O[C@@H](C)[C@](O)(C=O)[C@H]2O[C@@H]2O[C@@H](CO)[C@H](O)[C@@H](O)[C@@H]2NC)[C@@H](N/C(N)=N\[H])[C@@H]1O [Streptomycin, streptomycin]
- MIC [1, 6]: 1 µg/mL
- Concentration at which growth was inhibited completely [1, 7]: 1 μg per ml
- Resistance level ([2]; S. coelicolor strain SR-1): 50 µg/mL
- Resistance level ([2]; S. coelicolor strain SR-2): 50 µg/mL
- Resistance level ([2]; S. coelicolor strain SR-3): 50 µg/mL
- Resistance level ([2]; strain 1147 (wild type)): 1 µg/mL
- Resistance level ([2]; strain S-1): 100 µg/mL
- Resistance level ([2]; strain S-2): 5 µg/mL
- Resistance level ([2]; strain S-3): 10 µg/mL
- Resistance level ([2]; strain SG-1): 100 µg/mL
- Resistance level ([2]; strain SG-2): 100 µg/mL
- Resistance level ([2]; strain SG-3): 100 µg/mL
- Resistance level ([2]; strain SGR-1): 100 µg/mL
- Resistance level ([2]; strain SGR-2): 100 µg/mL
- Resistance level ([2]; strain SGR-3): 50 µg/mL
- Resistance level ([2]; strain SGR-4): 50 µg/mL
- Resistance level ([2]; strain SGR-5): 50 µg/mL
- Resistance level ([2]; strain SGR-6): 100 µg/mL
- Resistance level ([2]; strain SGe-1): 100 µg/mL
- Resistance level ([2]; strain SGe-2): 100 µg/mL
- Resistance level ([2]; strain SGe-3): 100 µg/mL
- Resistance level ([2]; strain SR-4): 100 µg/mL
- Resistance level ([2]; strain SR-5): 100 µg/mL
- Resistance level ([2]; strain SR-6): 50 µg/mL
- Resistance level ([2]; strain SR-7): 50 µg/mL
- Resistance level ([4]; S. lividans strain SR-1 (rif)): 1.0 µg/mL
- Resistance level ([4]; S. lividans strain SR-2 (rif)): 0.8 µg/mL
- Resistance level ([4]; S. lividans strain SR-3 (rif)): 1.0 µg/mL
- Resistance level [4, 9]: 1.0 µg/mL
- Resistance level ([4]; strain SRS-1 (rif-str)): 50 µg/mL
- Resistance level ([4]; strain SRS-2 (rif-str)): 120 µg/mL
- Resistance level ([4]; strain SRS-3 (rif-str)): 100 µg/mL

Molecule: C[C@H]1O[C@H](CC(=O)O)Cc2c1c(O)c1c(O)c(-c3cc(=O)c4c(=O)c5c(c(=O)c=4c3=O)[C@@H](C)O[C@H](CC(=O)O)C5)cc(O)c1c2O [actinorhodin]
- Solubility ([5]; in alcohol, acetic acid, acetone): slightly soluble
- Solubility ([5]; in aq acid): Practically insol
- Solubility ([5]; in aq alkali (bright blue color)): sol
- Solubility ([5]; in piperidine, tetrahydrofuran, dioxane, phenol): Soluble

Molecule: gentamicin
- Concentration at which growth was inhibited completely ([1]; S-1 strain): 0.5 μg per ml
- Concentration at which growth was inhibited completely [1, 7]: 0.1 μg per ml
- MIC ([1]; strain S-1 (str)): Gentamicin(0.1) μg/ml
- MIC ([1]; strain S. coelicolor 1147 (wild type)): Gentamicin (0.1) μg/ml
- Resistance level [3, 8]: 0.8 µg/mL
- Resistance level ([3]; strain BG-1 (gen)): 4.0 µg/mL
- Resistance level ([3]; strain BG-2 (gen)): 4.0 µg/mL
- Resistance level ([3]; strain BG-3 (gen)): 4.5 µg/mL
- Resistance level ([3]; strain BGR-1 (gen-rif)): 4.5 µg/mL
- Resistance level ([3]; strain BGR-2 (gen-rif)): 5.0 µg/mL
- Resistance level ([3]; strain BGR-3 (gen-rif)): 5.0 µg/mL
- Resistance level ([2]; strain 1147 (wild type)): 0.1 µg/mL
- Resistance level ([2]; strain G-1): 0.3 µg/mL
- Resistance level ([2]; strain G-2): 0.3 µg/mL
- Resistance level ([2]; strain G-3): 0.3 µg/mL
- Resistance level ([2]; strain SG-1): 0.3 µg/mL
- Resistance level ([2]; strain SG-2): 0.3 µg/mL
- Resistance level ([2]; strain SG-3): 0.3 µg/mL
- Resistance level ([2]; strain SGR-1): 0.2 µg/mL
- Resistance level ([2]; strain SGR-2): 0.2 µg/mL
- Resistance level ([2]; strain SGR-3): 0.3 µg/mL
- Resistance level ([2]; strain SGR-4): 0.2 µg/mL
- Resistance level ([2]; strain SGR-5): 0.5 µg/mL
- Resistance level ([2]; strain SGR-6): 0.3 µg/mL
